Laboratory results reported in patent publication US20260262643A1, “HERBICIDAL BENZOXAZINES” (FMC CORPORATION, priority 2022, published 2026).

Legend:
ragweed [1] = assay: Test A postemergence; type: in vivo, Ambrosia artemisiifolia; conditions: 1000 g ai/ha, Postemergence, 0 to 100 scale; for pest or weed control at 1000 g/ha: Ambrosia artemisiifolia, post-emergence, 240 h, read-out: Plant response rating, Ragweed
Text: (§1) Seeds of plant species selected from barnyardgrass (Echinochloa crusgalli), blackgrass (Alopecurus myosuroides), corn (Zea mays), foxtail, giant (giant foxtail, Setaria faberi), goosegrass (Eleusine indica), kochia (Bassia scoparia), oat, wild (wild oat, Avena fatua), pigweed, palmer (palmer amaranth, palmer pigweed, Amaranthus palmeri), Pigweed, Redroot (redroot pigweed, Amaranthus retroflexus), ragweed (common ragweed, Ambrosia artemisiifolia), ryegrass, Italian (italian ryegrass, Lolium multiflorum), soybean (Glycine max), and wheat (Triticum aestivum) were planted into a blend of loam soil and sand and treated preemergence with a directed soil spray using test chemicals formulated in a non-phytotoxic solvent mixture which included a surfactant. At the same time, plants selected from these crops and weed species and also galium (catchweed bedstraw, Galium aparine) and horseweed (Erigeron canadensis) were planted in pots containing the same blend of loam soil and sand and treated with postemergence applications of test chemicals formulated in the same manner. Plants ranged in height from 2 to 10 cm and were in the one- to two-leaf stage for the postemergence treatment. Treated plants and untreated controls were maintained in a greenhouse for 10 days, after which time all treated plants were compared to untreated controls and visually evaluated for injury. Plant response ratings, summarized in Table A, are based on a 0 to 100 scale where 0 is no effect and 100 is complete control. A dash (-) response means no test result.

pigweed, palmer [2] = assay: Test A postemergence; type: in vivo, Amaranthus palmeri; conditions: 1000 g ai/ha, Postemergence, 0 to 100 scale; for pest or weed control at 1000 g/ha: Amaranthus palmeri, post-emergence, 240 h, read-out: Plant response rating, Pigweed, Palmer
Text: as §1

ragweed [3] = assay: Test A preemergence; type: in vivo, Ambrosia artemisiifolia; conditions: 1000 g ai/ha, 0 to 100 scale (0 no effect, 100 complete control), 10 days; for pest or weed control at 1000 g/ha: Ambrosia artemisiifolia, pre-emergence, 240 h, read-out: Plant response rating, Ragweed
Text: as §1

goosegrass [4] = assay: Test A preemergence; type: in vivo, Eleusine indica; conditions: 1000 g ai/ha, 0 to 100 scale (0 no effect, 100 complete control), 10 days; for pest or weed control at 1000 g/ha: Eleusine indica, pre-emergence, 240 h, read-out: Plant response rating, Goosegrass
Text: as §1

ducksalad = assay: Test B flooded paddy test; type: in vivo, Heteranthera limosa; conditions: 250 g ai/ha, Flood, 13 days, 0 to 100 scale (0 no effect, 100 complete control); for pest or weed control at 250 g/ha: Heteranthera limosa, 312 h, read-out: Plant response rating, Ducksalad
Experimental: (§2) Plant species in the flooded paddy test selected from barnyardgrass (Echinochloa crus-galli), ducksalad (Heteranthera limosa), rice (Oryza sativa), and sedge, umbrella (small-flower umbrella sedge, Cyperus difformis) were grown to the 2-leaf stage for testing. At time of treatment, test pots were flooded to 3 cm above the soil surface, treated by application of test compounds directly to the paddy water, and then maintained at that water depth for the duration of the test. Treated plants and controls were maintained in a greenhouse for 13 days, after which time all species were compared to controls and visually evaluated. Plant response ratings, summarized in Table B, are based on a scale of 0 to 100 where 0 is no effect and 100 is complete control. A dash (-) response means no test result.

kochia [5] = assay: Test A postemergence; type: in vivo, Bassia scoparia; conditions: 1000 g ai/ha, Postemergence, 0 to 100 scale; for pest or weed control at 1000 g/ha: Bassia scoparia, post-emergence, 240 h, read-out: Plant response rating, Kochia
Text: as §1

galium = assay: Test A postemergence; type: in vivo, Galium aparine; conditions: 1000 g ai/ha, Postemergence, 0 to 100 scale; for pest or weed control at 1000 g/ha: Galium, post-emergence, 240 h, read-out: Plant response rating, Galium
Text: as §1

horseweed = assay: Test A postemergence; type: in vivo, Erigeron canadensis; conditions: 1000 g ai/ha, Postemergence, 0 to 100 scale; for pest or weed control at 1000 g/ha: Erigeron canadensis, post-emergence, 240 h, read-out: Plant response rating, Horseweed
Text: as §1

rice = assay: Test B flooded paddy test; type: in vivo, Oryza sativa; conditions: 250 g ai/ha, Flood, 13 days, 0 to 100 scale (0 no effect, 100 complete control); for plant injury at 250 g/ha: Oryza sativa, 312 h, read-out: Plant response rating, Rice
Experimental: as §2

kochia [6] = assay: Test A preemergence; type: in vivo, Bassia scoparia; conditions: 1000 g ai/ha, 0 to 100 scale (0 no effect, 100 complete control), 10 days; for pest or weed control at 1000 g/ha: Bassia scoparia, pre-emergence, 240 h, read-out: Plant response rating, Kochia
Text: as §1

goosegrass [7] = assay: Test A postemergence; type: in vivo, Eleusine indica; conditions: 1000 g ai/ha, Postemergence, 0 to 100 scale; for pest or weed control at 1000 g/ha: Eleusine indica, post-emergence, 240 h, read-out: Plant response rating, Goosegrass
Text: as §1

barnyardgrass = assay: Test B flooded paddy test; type: in vivo, Echinochloa crus-galli; conditions: 250 g ai/ha, Flood, 13 days, 0 to 100 scale (0 no effect, 100 complete control); for pest or weed control at 250 g/ha: Echinochloa crus-galli, 312 h, read-out: Plant response rating, Barnyardgrass
Experimental: as §2

ryegrass, Italian [8] = assay: Test A preemergence; type: in vivo, Lolium multiflorum; conditions: 1000 g ai/ha, 0 to 100 scale (0 no effect, 100 complete control), 10 days; for pest or weed control at 1000 g/ha: Lolium multiflorum, pre-emergence, 240 h, read-out: Plant response rating, Ryegrass, Italian
Text: as §1

blackgrass [9] = assay: Test A postemergence; type: in vivo, Alopecurus myosuroides; conditions: 1000 g ai/ha, Postemergence, 0 to 100 scale; for pest or weed control at 1000 g/ha: Alopecurus myosuroides, post-emergence, 240 h, read-out: Plant response rating, Blackgrass
Text: as §1

ryegrass, Italian [10] = assay: Test A postemergence; type: in vivo, Lolium multiflorum; conditions: 1000 g ai/ha, Postemergence, 0 to 100 scale; for pest or weed control at 1000 g/ha: Lolium multiflorum, post-emergence, 240 h, read-out: Plant response rating, Ryegrass, Italian
Text: as §1

foxtail, giant [11] = assay: Test A preemergence; type: in vivo, Setaria faberi; conditions: 1000 g ai/ha, 0 to 100 scale (0 no effect, 100 complete control), 10 days; for pest or weed control at 1000 g/ha: Setaria faberi, pre-emergence, 240 h, read-out: Plant response rating, Foxtail, Giant
Text: as §1

foxtail, giant [12] = assay: Test A postemergence; type: in vivo, Setaria faberi; conditions: 1000 g ai/ha, Postemergence, 0 to 100 scale; for pest or weed control at 1000 g/ha: Setaria faberi, post-emergence, 240 h, read-out: Plant response rating, Foxtail, Giant
Text: as §1

pigweed, palmer [13] = assay: Test A preemergence; type: in vivo, Amaranthus palmeri; conditions: 1000 g ai/ha, 0 to 100 scale (0 no effect, 100 complete control), 10 days; for pest or weed control at 1000 g/ha: Amaranthus palmeri, pre-emergence, 240 h, read-out: Plant response rating, Pigweed, Palmer
Text: as §1

sedge, umbrella = assay: Test B flooded paddy test; type: in vivo, Cyperus difformis; conditions: 250 g ai/ha, Flood, 13 days, 0 to 100 scale (0 no effect, 100 complete control); for pest or weed control at 250 g/ha: Cyperus difformis, 312 h, read-out: Plant response rating, Sedge, Umbrella
Experimental: as §2

blackgrass [14] = assay: Test A preemergence; type: in vivo, Alopecurus myosuroides; conditions: 1000 g ai/ha, 0 to 100 scale (0 no effect, 100 complete control), 10 days; for pest or weed control at 1000 g/ha: Alopecurus myosuroides, pre-emergence, 240 h, read-out: Plant response rating, Blackgrass
Text: as §1

Structure (SMILES) | pest or weed control at 1000 g/ha (ragweed [1]) | pest or weed control at 1000 g/ha (pigweed, palmer [2]) | pest or weed control at 1000 g/ha (ragweed [3]) | pest or weed control at 1000 g/ha (goosegrass [4]) | pest or weed control at 250 g/ha (ducksalad) | pest or weed control at 1000 g/ha (kochia [5]) | pest or weed control at 1000 g/ha (galium) | pest or weed control at 1000 g/ha (horseweed) | plant injury at 250 g/ha (rice) | pest or weed control at 1000 g/ha (kochia [6]) | pest or weed control at 1000 g/ha (goosegrass [7]) | pest or weed control at 250 g/ha (barnyardgrass) | pest or weed control at 1000 g/ha (ryegrass, Italian [8]) | pest or weed control at 1000 g/ha (blackgrass [9]) | pest or weed control at 1000 g/ha (ryegrass, Italian [10]) | pest or weed control at 1000 g/ha (foxtail, giant [11]) | pest or weed control at 1000 g/ha (foxtail, giant [12]) | pest or weed control at 1000 g/ha (pigweed, palmer [13]) | pest or weed control at 250 g/ha (sedge, umbrella) | pest or weed control at 1000 g/ha (blackgrass [14]) | also measured
Cc1cccc2c1O[C@H](C(F)(F)F)CN2C(=O)c1cccc(-n2cncn2)c1 (single isomer, unassigned) [Compound 58] | 10% | 20% | 0% | 90% | 0% | 60% | 60% | 0% | 0% | 20% | 20% | 0% | 90% | 20% | 30% | 80% | 30% | 80% | 0% | 40% | 
COCC1CN(C(=O)c2ccnc(-n3cncn3)c2)c2cccc(Cl)c2O1 (stereo not shown) [Compound 35, [8-Chloro-2,3-dihydro-2-(methoxymethyl)-4H-1,4-benzoxazin-4-yl][2-(1H-1,2,4-triazol-1-yl)-4-pyridinyl]methanone] | 50% | 50% | 20% | 90% | 30% | 50% | 80% | 20% | 0% | 50% | 50% | 0% | 90% | 60% | 80% | 100% | 90% | 90% | 40% | 70% | 
Cc1cc(C(=O)N2CC(C)Oc3c(Cl)cccc32)cc(-n2cncn2)c1 (stereo not shown) [Compound 32] |  |  |  |  |  |  |  |  |  |  |  |  |  |  |  |  |  |  |  |  | Plant response rating, Ragweed (ragweed [1]): 20; Plant response rating, Pigweed, Palmer (pigweed, palmer [2]): 70; Plant response rating, Ragweed (ragweed [3]): 0; Plant response rating, Goosegrass (goosegrass [4]): 100; Plant response rating, Ducksalad (ducksalad): 0; Plant response rating, Kochia (kochia [5]): 60; Plant response rating, Galium (galium): 100; Plant response rating, Horseweed (horseweed): 0; Plant response rating, Rice (rice): 0; Plant response rating, Kochia (kochia [6]): 30; Plant response rating, Goosegrass (goosegrass [7]): 80; Plant response rating, Barnyardgrass (barnyardgrass): 0; Plant response rating, Ryegrass, Italian (ryegrass, Italian [8]): 100; Plant response rating, Blackgrass (blackgrass [9]): 80; Plant response rating, Ryegrass, Italian (ryegrass, Italian [10]): 90; Plant response rating, Foxtail, Giant (foxtail, giant [11]): 100; Plant response rating, Foxtail, Giant (foxtail, giant [12]): 100; Plant response rating, Pigweed, Palmer (pigweed, palmer [13]): 90; Plant response rating, Sedge, Umbrella (sedge, umbrella): 0; Plant response rating, Blackgrass (blackgrass [14]): 80
Cc1ccc(-n2cncn2)cc1C(=O)N1CC(C)Oc2c(Cl)cccc21 (stereo not shown) [Compound 33] |  |  |  |  |  |  |  |  |  |  |  |  |  |  |  |  |  |  |  |  | Plant response rating, Ragweed (ragweed [1]): 80; Plant response rating, Pigweed, Palmer (pigweed, palmer [2]): 100; Plant response rating, Ragweed (ragweed [3]): 100; Plant response rating, Goosegrass (goosegrass [4]): 100; Plant response rating, Ducksalad (ducksalad): 30; Plant response rating, Kochia (kochia [5]): 70; Plant response rating, Galium (galium): 100; Plant response rating, Horseweed (horseweed): 30; Plant response rating, Rice (rice): 0; Plant response rating, Kochia (kochia [6]): 70; Plant response rating, Goosegrass (goosegrass [7]): 90; Plant response rating, Barnyardgrass (barnyardgrass): 30; Plant response rating, Ryegrass, Italian (ryegrass, Italian [8]): 100; Plant response rating, Blackgrass (blackgrass [9]): 90; Plant response rating, Ryegrass, Italian (ryegrass, Italian [10]): 100; Plant response rating, Foxtail, Giant (foxtail, giant [11]): 100; Plant response rating, Foxtail, Giant (foxtail, giant [12]): 100; Plant response rating, Pigweed, Palmer (pigweed, palmer [13]): 100; Plant response rating, Sedge, Umbrella (sedge, umbrella): 65; Plant response rating, Blackgrass (blackgrass [14]): 100
Cc1cccc2c1O[C@@H](C(F)(F)F)CN2C(=O)c1cccc(-n2cncn2)c1 (single isomer, unassigned) [Compound 68] | 60% | 50% | 70% | 100% | 55% | 80% | 100% | 0% | 0% | 90% | 90% | 0% | 100% | 80% | 90% | 100% | 90% | 100% | 65% | 80% | 
